From PubChem BioAssay (NCI)
Values joined by “and” are separate entries in the source; they are usually repeats but may differ in a detail not shown here. Identical values can stand only once.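 1) Cells in 96-well plates. 2) Compound, 48 h, 5 concentrations. 3) Linear interpolation between surrounding doses. 4) Unreached endpoint = highest concentration. Here, GI50 denotes the concentration required for 50% inhibition of growth. Definition used: TGI = concentration required for complete inhibition of growth.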

Tests used:
Assay in all cases: inhibition of tumour cell growth, NCI panel, 48 h
PC-3 prostate = test system: PC-3 prostate
T-47D breast = test system: T-47D breast
MDA-N = test system: MDA-N
XF 498 CNS = test system: XF 498 CNS
DMS 273 small cell lung = test system: DMS 273 small cell lung
SNB-78 CNS = test system: SNB-78 CNS
LXFL 529 NSCLC = test system: LXFL 529 NSCLC
HOP-18 NSCLC = test system: HOP-18 NSCLC
RXF-631 renal = test system: RXF-631 renal

SMILES	GI50 (PC-3 prostate)	TGI (PC-3 prostate) [µM]	GI50 (T-47D breast)	TGI (T-47D breast) [µM]	TGI (XF 498 CNS) [µM]	TGI (DMS 273 small cell lung) [µM]	TGI (SNB-78 CNS) [µM]	TGI (LXFL 529 NSCLC) [µM]	other results
CNC(=O)n1ccc2cc(Oc3ccnc(NC(=O)c4ccc(C5CCN(CCO)CC5)cc4)c3)c(OCCOC)cc21	6.1 µM	26.2	11.8 µM	36					
COc1c(CCC[P+](c2ccccc2)(c2ccccc2)c2ccccc2)cc2c(c1OC)OCO2	0.961 µM	22.4	0.419 µM	35.3					
CN(C)S(=O)(=O)c1ccc(NC(=O)COC(=O)c2ccc(S(=O)(=O)N3CCCCC3)cc2)cc1	> 100 µM	> 100	> 100 µM	> 100					
CCCCOc1ccc(NC(N)=Nc2ccc(Cl)cc2)cc1		18.3		18.9					TGI (MDA-N): 19.5 µM
Cc1cc(N(CCC#N)S(=O)(=O)c2ccccc2)ccc1/C=C1N=C(/C=C/c2ccccc2)OC\1=O					> 100	> 100	> 100	> 100	
C=CCC1([C@H](C)[C@@H](OC(C)=O)c2cc(OC)c(OC)c(OC)c2)C[C@@H](OC)CCC1=O (some centres not stated)					32.9			31.2	
CCCCCCCCCc1cc(=O)c2ccc(OCc3ccccc3)cc2o1					> 100	> 100	> 100	> 100	TGI (HOP-18 NSCLC): > 100 µM
CC1CCCCc2nc3c(c(=O)n21)CCCC3 (configuration not stated)					> 100	> 100	> 100	> 100	TGI (RXF-631 renal): > 100 µM
CCN(Cc1ccc(F)c(F)c1)c1ccc(CO)c(Cl)c1	12.3 µM	27.4	0.0977 µM	0.667					
N#Cc1cnc2cc(OC[C@H](O)CO)c(NC(=O)CC3CSSC3)cc2c1Nc1ccc(OCc2cccc(F)c2)c(Cl)c1	0.162 µM	0.451	0.575 µM	1.47					
C=C1C(=O)O[C@H]2[C@H]1CC/C(COC(=O)NCc1ccccc1OC)=C\CC[C@@]1(C)O[C@@H]21	3.13 µM	10.6	2.01 µM	5.7					
COc1cccc(/C=C/C(=O)c2cccc(Nc3nc(Nc4ccccc4)nc(Nc4ccccc4)n3)c2)c1	5.21 µM	> 67.2	6.15 µM	> 79.8					
COc1ccccc1NC(=O)CC(=O)N1N=C(C)C(N=Nc2ccc(S(N)(=O)=O)cc2)C1=O (configuration not stated)					> 100	> 100	> 100	> 100	TGI (HOP-18 NSCLC): > 100 µM
O=C(c1ccc(F)cc1)c1cccc(C(=O)c2ccc(F)cc2)n1		> 100		> 100	> 59.7	> 100	> 58.1	> 100	TGI (MDA-N): > 100 µM; TGI (HOP-18 NSCLC): > 100 µM
COc1cc(C2c3cc4c(cc3OC(N3CCCC3)C2C)OCO4)cc(OC)c1OC (configuration not stated)		> 62.5		> 100					TGI (MDA-N): 0.418 µM
Nc1cc2cccc[n+]2c2cc(Cl)ccc12			6.83 µM						GI50 (MDA-N): 12.6 µM; TGI (MDA-N): 38.8 µM

SMILES	GI50 (PC-3 prostate)	TGI (PC-3 prostate) [µM]	GI50 (T-47D breast)	TGI (T-47D breast) [µM]	TGI (XF 498 CNS) [µM]	TGI (DMS 273 small cell lung) [µM]	TGI (SNB-78 CNS) [µM]	TGI (LXFL 529 NSCLC) [µM]	other results
Cc1sc(C(=O)Nc2cc(C(=O)NCCCN(C)C)n(C)c2)cc1NC(=O)CCCN1C(=O)c2cccc3cccc(c23)C1=O	> 100 µM	> 100	> 100 µM	> 100					
O=C1OC(=O)C(c2c[nH]c3ccccc23)=C1c1c[nH]c2ccccc12	> 18 µM	> 25	> 25 µM	> 25					
O=C(c1ccccc1)C1N=NCC1c1ccc([N+](=O)[O-])cc1 (configuration not stated)		> 100		30.9					TGI (MDA-N): > 100 µM
CC(=O)NC(CCCNCc1ccccc1)C(=O)NCc1ccccc1 (configuration not stated)					> 100	> 100	> 100	> 100	TGI (RXF-631 renal): > 100 µM
Nc1ccn(Cc2ccc(C34CC5CC(CC(C5)C3)C4)c(O)c2)c(=O)n1			> 100 µM	> 100					
COc1nc(NC2OCC(OC(C)=O)C(OC(C)=O)C2OC(C)=O)c(N=CC=Nc2c(NC3OCC(OC(C)=O)C(OC(C)=O)C3OC(C)=O)nc(OC)n(C)c2=O)c(=O)n1C (configuration not stated)					95.9	> 100	> 100	> 100	TGI (HOP-18 NSCLC): > 100 µM
O=c1c2c([nH]c3cc4c(cc13)OCO4)-c1ccccc1CC2					> 100	> 100		> 100	TGI (RXF-631 renal): > 100 µM
COc1ccccc1NC(=O)C1=C(C)NC(C)=C(C(=O)Nc2ccccc2OC)C1c1ccccc1F						> 100	> 100	> 100	TGI (HOP-18 NSCLC): > 100 µM; TGI (RXF-631 renal): > 100 µM
COC(=O)[C@@H](C)C[C@H](Cc1ccccc1)NC(=O)c1nc([C@@H](C[C@H](C(C)C)N(C)C(=O)[C@@H](NC(=O)[C@H]2CCCCN2C)C(C)C)OC(C)=O)sc1C	< 0.00167 µM	> 16.7							
COc1ccc2c(c1)C(O)(C(F)(F)F)c1cc(C(=O)C(F)(F)F)c3ccccc3c1N2 (configuration not stated)						23.1		22	TGI (HOP-18 NSCLC): 33.3 µM; TGI (RXF-631 renal): 34.6 µM
COC(=O)CCC1CCc2c(OC)ccc(O)c2C1=O (configuration not stated)						> 100	> 100	> 100	TGI (RXF-631 renal): > 100 µM
COc1ccc(-c2cc(=O)c3cc4c(cc3[nH]2)OCO4)c(OC)c1OC					> 100	> 100	> 100	> 100	TGI (HOP-18 NSCLC): > 100 µM
CC(C)(C)OC(=O)C#CC[C@H]1CCCC1/C=C/C(O)=C1/C(=O)NC(CCCNC(=O)OC(C)(C)C)C1=O (some centres not stated)						65.9		53.8	TGI (HOP-18 NSCLC): > 100 µM; TGI (RXF-631 renal): 44.9 µM
C[C@@H](C(=O)Nc1ccc(Cl)cc1)C1CCC(c2ccnc3ccc(F)cc23)CC1 (some centres not stated)	3.43 µM	> 100	3.36 µM	46.1					
COC(=O)c1csnn1					> 100	> 100		> 100	
CC(C)NC[C@@H](C(=O)N1CCN(c2ncnc3c2[C@H](C)C[C@H]3O)CC1)c1ccc(Cl)cc1	0.566 µM and 0.887 µM	> 100	0.208 µM and 0.236 µM						
